Activity calls are given as the source filed them. No cut-off for these calls is given here.
Target: Tubulin (Sus scrofa) (UniProt P02554+P02550)
Assay: Inhibition of porcine tubulin polymerization at 3 uM incubated for 1 min by fluorescence based assay
Type: protein assay

Sequence of Tubulin (Sus scrofa) (P02550 whole entry, looked up): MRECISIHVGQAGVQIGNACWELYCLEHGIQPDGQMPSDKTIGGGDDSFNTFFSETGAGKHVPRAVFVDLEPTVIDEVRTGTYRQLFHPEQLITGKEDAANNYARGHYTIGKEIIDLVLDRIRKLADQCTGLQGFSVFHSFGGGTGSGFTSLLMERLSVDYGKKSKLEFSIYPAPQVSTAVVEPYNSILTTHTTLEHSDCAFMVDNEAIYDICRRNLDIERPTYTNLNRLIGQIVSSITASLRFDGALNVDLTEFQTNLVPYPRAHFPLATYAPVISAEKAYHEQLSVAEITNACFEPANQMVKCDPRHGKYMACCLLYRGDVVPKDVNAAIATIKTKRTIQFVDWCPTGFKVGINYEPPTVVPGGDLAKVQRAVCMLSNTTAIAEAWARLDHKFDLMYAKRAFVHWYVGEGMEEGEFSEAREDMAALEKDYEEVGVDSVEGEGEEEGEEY
Sequence of Tubulin (Sus scrofa) (P02554 whole entry, looked up): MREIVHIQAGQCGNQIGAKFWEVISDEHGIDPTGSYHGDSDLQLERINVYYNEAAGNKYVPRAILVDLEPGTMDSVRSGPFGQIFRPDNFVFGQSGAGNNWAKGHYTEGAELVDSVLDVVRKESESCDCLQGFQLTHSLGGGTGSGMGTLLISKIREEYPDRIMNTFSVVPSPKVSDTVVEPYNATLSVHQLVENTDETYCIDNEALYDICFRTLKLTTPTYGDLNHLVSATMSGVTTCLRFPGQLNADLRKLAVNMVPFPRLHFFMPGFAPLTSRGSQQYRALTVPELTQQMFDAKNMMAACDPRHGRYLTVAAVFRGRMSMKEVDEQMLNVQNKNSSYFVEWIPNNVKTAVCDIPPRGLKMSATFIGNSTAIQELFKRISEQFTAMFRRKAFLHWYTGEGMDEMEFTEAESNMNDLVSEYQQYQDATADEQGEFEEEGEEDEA

Q: With `CC(=O)O[C@H]1C(=O)[C@@]2(C)[C@H]([C@H](OC(=O)c3ccccc3)[C@]3(O)C[C@H](OC(=O)[C@H](O)[C@@H](NC(=O)c4ccccc4)c4ccccc4)C(C)=C1C3(C)C)[C@]1(OC(C)=O)CO[C@@H]1C[C@@H]2O` as the compound, how does the inhibition read?
A: The inhibition was “inactive”.

Q: With `CC[C@]1(O)C[C@@H]2CN(CCc3c([nH]c4ccccc34)[C@@](C(=O)OC)(c3cc4c(cc3OC)N(C)[C@H]3[C@@](O)(C(=O)OC)[C@H](OC(C)=O)[C@]5(CC)C=CCN6CC[C@]43[C@@H]65)C2)C1` as the compound, how does the inhibition read?
A: Its inhibition is “Active”.
